From patent publication US4271155A, “Water soluble hydrazones of 3-formylrifamycin SV, antibacterial compositions thereof and method of use thereof” (Gruppo Lepetit S.p.A., priority 1979, dated 1981)
Read-outs that look alike come from different tables or passages of the source.

Assays:
[1] = solubility in water / aqueous vehicles; format: physicochemical
Text: The new rifamycins of formula I are in fact completely soluble in water or in mixture of water with other pharmaceutically acceptable solvents mixable with water. Useful solvents which can be admixed with water are for instance the polyhydric aliphatic alcohols such as ethylene glycol, propylene glycol, glycerine and mixtures thereof. These solutions can be added with buffers to maintain the pH range at a physiological value. For instance, ten grams of the compound of formula I wherein R is methyl, X is [drawing 3] are completely soluble in 100 ml of water buffered at pH 7.38 (phosphate buffer). The corresponding compound wherein A and B are both the sodium cation is even more soluble; in fact 100 ml of water can dissolve about fifty grams of said compound.

[2] = tested on: Staphylococcus aureus Tour; assay: ED50 in mice infected with Staphylococcus aureus Tour; format: in vivo; settings: sc
Text: (§1) The values of the ED50 of the compounds of examples 2, 3 and 4 against the two microbial strains and the toxicity (LD50) of the compounds are reported in the following Table

toxicity (LD50) in mice = settings: mouse, in vivo
Text: as §1

Escherichia coli = assay: ED50 in mice infected with Escherichia coli; format: in vivo; settings: sc, read-out: ED50, E. coli
Text: as §1

[3] = ip, read-out: LD50 in mice, i.p.
[4] = iv, read-out: LD50 in mice, i.v.

SMILES	completely soluble in 100 ml of water ([1]; per 100 ml of water buffered at pH 7.38 (phosphate buffer))	amount that 100 ml of water can dissolve ([1]; per 100 ml of water, A and B both sodium cation)	ED50 [2]	LD50 (toxicity (LD50) in mice; [3])	LD50 (toxicity (LD50) in mice; [4])	ED50 (Escherichia coli)
COC1C=COC2(C)Oc3c(C)c(O)c4c(O)c(c(C=NN(C)CC(C)OP(=O)(O)O)c(O)c4c3C2=O)NC(=O)C(C)=CC=CC(C)C(O)C(C)C(O)C(C)C(OC(C)=O)C1C (centres unmarked) [listing 1 of 2 here]	ten					
COC1C=COC2(C)Oc3c(C)c(O)c4c(O)c(c(C=NN(C)CC(C)OP(=O)(O)O)c(O)c4c3C2=O)NC(=O)C(C)=CC=CC(C)C(O)C(C)C(O)C(C)C(OC(C)=O)C1C (centres unmarked) [listing 2 of 2 here]		about fifty				
COC1C=COC2(C)Oc3c(C)c(O)c4c(O)c(c(C=NN(C)CC(C)OP(=O)(O)O)c(O)c4c3C2=O)NC(=O)C(C)=CC=CC(C)C(O)C(C)C(O)C(C)C(OC(C)=O)C1C (centres unmarked) [Example 2, 3-[[[2-(Phosphonoxy)propyl]methylhydrazino]methyl]rifamycin SV]			0.812 mg/kg	770 mg/kg	665 mg/kg	98.5 mg/kg
CCC(CN(C)N=Cc1c2c(O)c3c(O)c(C)c4c(c3c1O)C(=O)C(C)(OC=CC(OC)C(C)C(OC(C)=O)C(C)C(O)C(C)C(O)C(C)C=CC=C(C)C(=O)N2)O4)OP(=O)(O)O (centres unmarked) [Example 3, 3-[[[2-(Phosphonoxy)butyl]methylhydrazono]methyl]rifamycin SV]			0.812 mg/kg	> 500 mg/kg	525 mg/kg	130 mg/kg
COC1C=COC2(C)Oc3c(C)c(O)c4c(O)c(c(C=NN(C)CCOP(=O)(O)O)c(O)c4c3C2=O)NC(=O)C(C)=CC=CC(C)C(O)C(C)C(O)C(C)C(OC(C)=O)C1C (centres unmarked) [Example 4, 3-[[[2-(Phosphonoxy)ethyl]methylhydrazono]methyl]rifamycin SV]			1.51 mg/kg	592 mg/kg	507 mg/kg	106 mg/kg
